Test results from patent US7265147B2, “3,6-disubstituted azabicyclo [3.1.0]hexane derivatives useful as muscarinic receptor antagonists” (Ranbaxy Laboratories Limited, priority 2002, dated 2007).
Where two headings read alike, the source gives them in different places.

Tests used:
M2 muscarinic receptor = biological target: T1, M2 muscarinic receptor (Rattus norvegicus, UniProt P10980); test: Radioligand binding assay, [3H]-N-methylscopolamine, rat heart membranes
T1 construct: Submandibular glands and heart were isolated and placed in ice cold homogenising buffer; from tissue; host or cells: rat heart membrane homogenate
T1 sequence (P10980 1-466): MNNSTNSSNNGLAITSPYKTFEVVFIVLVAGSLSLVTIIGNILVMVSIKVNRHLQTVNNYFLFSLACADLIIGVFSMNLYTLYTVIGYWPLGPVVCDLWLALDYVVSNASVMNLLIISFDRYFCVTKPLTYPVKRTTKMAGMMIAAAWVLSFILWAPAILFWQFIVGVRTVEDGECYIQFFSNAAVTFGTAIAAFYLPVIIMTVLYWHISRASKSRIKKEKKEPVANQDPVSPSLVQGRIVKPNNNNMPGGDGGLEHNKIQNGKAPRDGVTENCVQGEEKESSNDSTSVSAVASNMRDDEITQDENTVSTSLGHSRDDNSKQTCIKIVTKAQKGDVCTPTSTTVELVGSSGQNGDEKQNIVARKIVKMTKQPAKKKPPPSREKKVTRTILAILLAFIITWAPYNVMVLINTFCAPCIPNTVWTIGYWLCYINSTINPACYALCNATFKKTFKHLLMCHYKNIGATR

M3 muscarinic receptor [1] = biological target: T2, M3 muscarinic receptor (Rattus norvegicus, UniProt P08483); test: biochemical
T2 sequence (P08483 whole entry): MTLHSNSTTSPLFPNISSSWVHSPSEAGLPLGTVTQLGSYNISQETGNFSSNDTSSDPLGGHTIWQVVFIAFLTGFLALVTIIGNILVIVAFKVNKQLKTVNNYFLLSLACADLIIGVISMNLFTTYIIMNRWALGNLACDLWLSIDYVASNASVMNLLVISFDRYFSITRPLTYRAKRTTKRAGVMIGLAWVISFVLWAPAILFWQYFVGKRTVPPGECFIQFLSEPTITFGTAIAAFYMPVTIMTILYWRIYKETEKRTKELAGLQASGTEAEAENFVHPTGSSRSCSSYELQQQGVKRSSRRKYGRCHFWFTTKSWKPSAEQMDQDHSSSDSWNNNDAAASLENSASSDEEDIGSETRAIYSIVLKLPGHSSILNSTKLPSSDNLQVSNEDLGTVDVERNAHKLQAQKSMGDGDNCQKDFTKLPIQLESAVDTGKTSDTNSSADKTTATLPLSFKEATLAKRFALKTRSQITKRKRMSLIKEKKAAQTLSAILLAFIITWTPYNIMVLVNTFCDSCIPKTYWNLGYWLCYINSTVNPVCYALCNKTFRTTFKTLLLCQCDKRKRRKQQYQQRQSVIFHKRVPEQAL

M3 muscarinic receptor [2] = biological target: T2, M3 muscarinic receptor; settings: for Ki: read-out: Receptor Binding Assay Ki (nM) M3
[3] = read-out: Receptor Binding Assay Ki (nM) M2

| Compound | Ki (M2 muscarinic receptor) [nM] | Ki (M3 muscarinic receptor [1]) [nM] | Selectivity (M2/M3) (M3 muscarinic receptor [2]) | Ki (M2 muscarinic receptor; [3]) [nM] | Ki (M3 muscarinic receptor [2]) [nM] |
| --- | --- | --- | --- | --- | --- |
| O=C(NCC#CCN1C[C@H]2C[C@H]2C1)C(O)(c1ccc(F)cc1)c1ccc(F)cc1 [Compound No. 12, N-{4-[(1R,5S)-3-azabicyclo[3.1.0]-hex-3-yl]-but-2-ynyl}2-hydroxy-bis(4-florophenyl)acetamide] | 736 | – | – | – | – |
| O=C(NCC#CCN1C[C@H]2C[C@H]2C1)C(O)(c1ccccc1)C1CCCC1 (stereo partly drawn) [Compound No. 10, N-{4-[(1R, 5S)-3-azabicyclo[3.1.0]-hex-3-yl]but-2-ynyl}-2-hydroxy-2-cyclopentyl-2-phenylacetamide] | 425 | 330 | 1.28 | – | – |
| O=C(NCC#CCN1C[C@H]2C[C@H]2C1)C(O)(c1ccccc1)C1CCCCC1 (stereo partly drawn) [Compound No. 9, N-{4-[(1R, 5S)-3-azabicyclo[3.1.0]-hex-3-yl]but-2-ynyl}-2-hydroxy-2-cyclohexyl-2-phenylacetamide] | 3580 | – | – | – | – |
| O=C(NCC#CCN1C[C@H]2C[C@H]2C1)C(O)(c1ccccc1)c1ccccc1 [Compound No. 11, N-{4-[(1R, 5S)-3-azabicyclo[3.1.0]-hex-3-yl]but-2-ynyl}-2-hydroxy-2,2-diphenylacetamide] | 639 | – | – | – | – |
| 4-[(1S,5R)-2-methyl-3-azabicyclo[3.1.0]hex-3-yl]-but-2-ynyl-2-cyclopentyl-2-hydroxyphenylacetate [Compound No. 17] | – | – | 3.641 | 142 | 39 |
| 4-[(1S,5R)-2-methyl-3-azabicyclo[3.1.0]hex-3-yl]-but-2-ynyl-2-cyclohexyl-2-hydroxyphenylacetate [Compound No. 18] | – | – | 7.708 | 185 | 24 |
